Experimental data as given in publication PMC7321065, “Discovery of New Schiff Bases Tethered Pyrazole Moiety: Design, Synthesis, Biological Evaluation, and Molecular Docking Study as Dual Targeting DHFR/DNA Gyrase Inhibitors with Immunomodulatory Activity” (Molecules, 2020).
Values after ≈ are worked out from the molar mass of the structure shown. Like-named read-outs stand apart in the source and are kept apart here.

How the values were obtained:
Pseudomonas aeruginosa [1] = test: Inhibition zone, agar plate diffusion; format: cell-based; conditions: read-out: Inhibition zone (IZ)
Protocol: (§1) Antimicrobial activities of the newly formed Schiff bases (6a–d, 7a–d, 8a–d, and 9a–d) and reference drugs were evaluated against three Gram-positive, three Gram-negative, and two fungi strain at Al-Azhar University, Cairo, Egypt. The inhibition zones (IZ, in mm ± standard deviation) and the minimal inhibitory concentration (MIC) (μg/mL) were determined by the conventional paper disk diffusion method.
(§2) In Vitro Antimicrobial Activities
(§3) The antimicrobial activities inhibition zone (IZ, mm±standard deviation) of pyrazole Schiff bases ( 6a-d , 7a-d, 8a-d and 9a-d ) was measurement according to the agar plate diffusion method. Briefly, 100 µl of the […]
(§4) […] of each sample (at 0.5 mg/mL) was added to each well (10 mm diameter holes cut in the agar gel). The plates were incubated for 24 h at 37 °C (for bacteria and yeast) and for 72 h at 27 °C (for filamentous fungi), each test was repeated three times. After incubation, the microorganism's growth was observed. […]
(§5) drugs while Amphotericin B was used as standard antifungal drug. The resulting inhibition zone diameters were measured in millimeters and used as criterion for the antimicrobial activity. Solvent controls (DMSO) were included in every experiment as negative controls. DMSO was used for dissolving […]
(§6) the tested microorganisms. […]

Bacillus subtilis [2] = test: Inhibition zone, agar plate diffusion; format: cell-based; conditions: read-out: Inhibition zone (IZ)
Protocol: as §1, §2, §3, §4, §5, §6

Escherichia coli [3] = test: Inhibition zone, agar plate diffusion; format: cell-based; conditions: read-out: Inhibition zone (IZ)
Protocol: as §1, §2, §3, §4, §5, §6

Enterococcus faecalis [4] = test: Inhibition zone, agar plate diffusion; format: cell-based; conditions: read-out: Inhibition zone (IZ)
Protocol: as §1, §2, §3, §4, §5, §6

Fusarium oxysporum [5] = test: Inhibition zone, agar plate diffusion; format: cell-based; conditions: read-out: Inhibition zone (IZ)
Protocol: as §1, §2, §3, §4, §5, §6
(§7) Bacteria were grown on nutrient agar medium, while fungi and yeast were grown on Sabouraud agar medium. […]

Salmonella typhi [6] = test: Inhibition zone, agar plate diffusion; format: cell-based; conditions: Salmonella enterica, read-out: Inhibition zone (IZ)
Protocol: as §1, §2, §3, §4, §5, §6, §7

Candida albicans [7] = test: Inhibition zone, agar plate diffusion; format: cell-based; conditions: read-out: Inhibition zone (IZ)
Protocol: as §1, §2, §3, §4, §5, §6, §7

Staphylococcus aureus [8] = test: Inhibition zone, agar plate diffusion; format: cell-based; conditions: read-out: Inhibition zone (IZ)
Protocol: as §1, §2, §3, §4, §5, §6, §7

Fusarium oxysporum [9] = test: MIC/MFC, paper disk diffusion; format: cell-based; conditions: Fusarium oxysporum, F. oxysporum
Protocol: as §1
(§8) In Vitro Antimicrobial Activities […]
(§9) DMSO was used for dissolving […]
(§10) the tested microorganisms.
(§11) The minimum inhibitory concentration (MIC), the minimum bactericidal concentration (MBC, µg/ml) and […]
(§12) and 9b) were determined by the conventional technique termed paper disk diffusion, by applying paper […]
(§13) Bacteria were grown on nutrient agar medium, while fungi and yeast were grown on Sabouraud agar medium. The purified streptomycin was dissolved in […]
(§14) inoculated with test organism. Growth inhibition was examined after 24 hr. from incubation at 37 °C for bacteria and after 72 hr. incubation at 27 °C for fungi and yeast. Each test was repeated three times. MIC was expressed as the lowest concentration inhibiting test organism’s growth. […]

Candida albicans [10] = test: MIC/MFC, paper disk diffusion; format: cell-based; conditions: Candida albicans, C. albicans
Protocol: as §1, §8, §9, §10, §11, §12, §13, §14

[11] = test system: hepatocellular carcinoma cell line (HepG2); test: Antiproliferative activity, MTT assay; format: cell-based, human; conditions: Homo sapiens, HepG2; MTT, 48 h; read-out: IC50 HepG-2
Protocol: (§15) 3-[4, 5-Dimethyl-2-thiazolyl)-2, 5-diphenyl-2 H-tetrazolium bromide (MTT) protocol is based on the cleavage of the tetrazolium salt by mitochondrial dehydrogenases in viable cells. Cells were dispensed in a 96 well sterile microplate (5 x 10^4 cells/well), and incubated at 37 °C with series of different concentrations, in DMSO, of each tested compound or Doxorubicin ® (positive control) for 48 h in a serum free medium prior to the MTT assay. After incubation, media were carefully removed, 40 µL of MTT (2.5 mg/mL) were added to each well and then incubated for an additional 4 h. The purple formazan dye crystals were solubilized by the addition of 200 µL of DMSO. The absorbance was measured at 590 nm using a SpectraMax® Paradigm® Multi-Mode microplate reader. The relative cell viability was expressed as the mean percentage of viable cells compared to the untreated control cells.
(§16) All experiments were conducted in triplicate and repeated in three different days. All the values were represented as mean ± SD. IC 50s were determined by probit analysis using SPSS software program (SPSS

[12] = test system: mammary gland breast cancer cell line (MCF-7); test: Antiproliferative activity, MTT assay; format: cell-based, human; conditions: Homo sapiens, MCF7; MTT, 48 h; read-out: IC50 MCF-7
Protocol: as §15, §16

Pseudomonas aeruginosa [13] = test: MIC/MBC, paper disk diffusion; format: cell-based; conditions: Pseudomonas aeruginosa, P. aeruginosa
Protocol: as §1, §8, §9, §10, §11, §12, §13, §14

Salmonella typhi [14] = test: MIC/MBC, paper disk diffusion; format: cell-based; conditions: Salmonella enterica, TYPHI
Protocol: as §1, §8, §9, §10, §11, §12, §13, §14

Bacillus subtilis [15] = test: MIC/MBC, paper disk diffusion; format: cell-based; conditions: Bacillus subtilis, B. subtilis; read-out: MBC
Protocol: as §1, §8, §9, §10, §11, §12, §13, §14

Escherichia coli [16] = test: MIC/MBC, paper disk diffusion; format: cell-based; conditions: Escherichia coli, E. coli
Protocol: as §1, §8, §9, §10, §11, §12, §13, §14

Enterococcus faecalis [17] = test: MIC/MBC, paper disk diffusion; format: cell-based; conditions: E. faecalis
Protocol: as §1, §8, §9, §10, §11, §12, §13, §14

Staphylococcus aureus [18] = test: MIC/MBC, paper disk diffusion; format: cell-based; conditions: Staphylococcus aureus, S. aureus
Protocol: as §1, §8, §9, §10, §11, §12, §13, §14

[19] = St, mm ± standard deviation, sample at 0.5 mg/mL
[20] = Pa, mm ± standard deviation, sample at 0.5 mg/mL
[21] = Bs, mm ± standard deviation, sample at 0.5 mg/mL
[22] = Ec, mm ± standard deviation, sample at 0.5 mg/mL
[23] = Ef, mm ± standard deviation, sample at 0.5 mg/mL
[24] = Fo, mm ± standard deviation, sample at 0.5 mg/mL
[25] = Ca, mm ± standard deviation, sample at 0.5 mg/mL
[26] = Sa, mm ± standard deviation, sample at 0.5 mg/mL

Row | SMILES | zone of inhibition at 500 µg/mL (Pseudomonas aeruginosa [1]) | zone of inhibition at 500 µg/mL (Bacillus subtilis [2]) | zone of inhibition at 500 µg/mL (Escherichia coli [3]) | zone of inhibition at 500 µg/mL (Enterococcus faecalis [4]) | zone of inhibition at 500 µg/mL (Fusarium oxysporum [5]) | zone of inhibition at 500 µg/mL (Salmonella typhi [6]; [19]) | zone of inhibition at 500 µg/mL (Candida albicans [7]) | zone of inhibition at 500 µg/mL (Staphylococcus aureus [8]) | also measured
1 | COc1ccc(Nc2n[nH]c(N=Cc3c(C)n(C)n(-c4ccccc4)c3=O)c2C(=O)Nc2ccc(C)cc2)cc1 [6c, 5-((1,5-Dimethyl-3-oxo-2-phenyl-2,3-dihydro-1H-pyrazol-4-yl)methyleneamino)-3-(p-methoxyphenylamino)-N-p-tolyl-1H-pyrazole-4-carboxamide] | < 8 mm | 20 ± 0.11 mm | 22 ± 0.43 mm | 21 ± 0.54 mm | 9 ± 0.35 mm | 15 ± 0.36 mm | 17 ± 0.21 mm | 23 ± 0.29 mm | –
2 | COc1ccc(Nc2n[nH]c(N=Cc3c(C)n(C)n(-c4ccccc4)c3=O)c2C(=O)Nc2ccc(Cl)cc2)cc1 [6d, N-(4-Chlorophenyl)-5-((1,5-dimethyl-3-oxo-2-phenyl-2,3-dihydro-1H-pyrazol-4-yl)methyleneamino)-3-(p-methoxyphenylamino)-1H-pyrazole-4-carboxamide] | 12 ± 0.63 mm | 13 ± 0.41 mm | 19 ± 0.33 mm | 14 ± 0.47 mm | < 8 mm | < 8 mm | 13 ± 0.2 mm | < 8 mm | –
3 | COc1ccc(Nc2n[nH]c(N=Cc3c(C)nn(-c4ccccc4)c3Cl)c2C(=O)Nc2ccc(Cl)cc2)cc1 [7d, 5-((5-Chloro-3-methyl-1-phenyl-1H-pyrazol-4-yl)methyleneamino)-N-(p-chlorophenyl)-3-(p-methoxyphenylamino)-1H-pyrazole-4-carboxamide] | 17 ± 0.74 mm | 23 ± 0.22 mm | 27 ± 0.3 mm | 22 ± 0.35 mm | 15 ± 0.14 mm | 17 ± 0.12 mm | 20 ± 0.5 mm | 24 ± 0.33 mm | –
4 | COc1ccc(Nc2n[nH]c(N=Cc3ccc(N4CCCCC4)cc3)c2C(=O)Nc2ccccc2)cc1 [8b, 3-(p-Methoxyphenylamino)-N-phenyl-5-(4-(piperidin-1-yl)benzylideneamino)-1H-pyrazole-4-carboxamide] | < 8 mm | 15 ± 0.45 mm | 14 ± 0.21 mm | 12 ± 0.74 mm | < 8 mm | 15 ± 0.2 mm | 12 ± 0.65 mm | < 8 mm | –
5 | COc1ccc(Nc2n[nH]c(N=Cc3ccc(N4CCCCC4)cc3)c2C(=O)Nc2ccc(C)cc2)cc1 [8c, 3-(p-Methoxyphenylamino)-5-(4-(piperidin-1-yl)benzylideneamino)-N-p-tolyl-1H-pyrazole-4-carboxamide] | < 8 mm | 22 ± 0.41 mm | 18 ± 0.3 mm | 25 ± 0.14 mm | < 8 mm | 14 ± 0.52 mm | 19 ± 0.65 mm | 17 ± 0.78 mm | –
6 | C[C@@H]1[C@H](O)[C@@H](C)/C=C/C=C/C=C/C=C/C=C/C=C/C=C/[C@H](O[C@@H]2O[C@H](C)[C@@H](O)[C@H](N)[C@@H]2O)C[C@@H]2O[C@](O)(C[C@@H](O)C[C@@H](O)[C@H](O)CC[C@@H](O)C[C@@H](O)CC(=O)O[C@H]1C)C[C@H](O)[C@H]2C(=O)O [Amphotericin B, reference compound] | – | – | – | – | – | < 8 mm | – | – | zone of inhibition at 500 µg/mL (Pseudomonas aeruginosa [1]; [20]): < 8 mm; zone of inhibition at 500 µg/mL (Bacillus subtilis [2]; [21]): < 8 mm; zone of inhibition at 500 µg/mL (Escherichia coli [3]; [22]): < 8 mm; zone of inhibition at 500 µg/mL (Enterococcus faecalis [4]; [23]): < 8 mm; MFC (Fusarium oxysporum [9]; read-out: MFC): 65.6 mg/L (≈ 71 µM); MIC (Fusarium oxysporum [9]; read-out: MIC): 31.2 mg/L (≈ 33.8 µM); MFC (Candida albicans [10]; read-out: MFC): 34.6 mg/L (≈ 37.5 µM); MIC (Candida albicans [10]; read-out: MIC): 15.6 mg/L (≈ 16.9 µM); zone of inhibition at 500 µg/mL (Fusarium oxysporum [5]; [24]): 18 ± 0.32 mm; zone of inhibition at 500 µg/mL (Candida albicans [7]; [25]): 22 ± 0.2 mm; zone of inhibition at 500 µg/mL (Staphylococcus aureus [8]; [26]): < 8 mm
7 | COc1cccc2c1C(=O)c1c(O)c3c(c(O)c1C2=O)C[C@@](O)(C(=O)CO)C[C@@H]3O[C@H]1C[C@H](N)[C@H](O)[C@H](C)O1 [Doxorubicin, reference compound] | – | – | – | – | – | – | – | – | IC50 [11]: 3.92 ± 0.5 µM; IC50 [12]: 1.94 ± 0.8 µM
8 | CN(C)[C@@H]1C(O)=C(C(N)=O)C(=O)[C@@]2(O)C(O)=C3C(=O)c4c(O)cccc4[C@@](C)(O)[C@H]3C[C@@H]12 [Tetracycline, reference compound] | – | – | – | – | – | – | – | – | zone of inhibition at 500 µg/mL (Pseudomonas aeruginosa [1]; [20]): 20 ± 0.5 mm; zone of inhibition at 500 µg/mL (Bacillus subtilis [2]; [21]): 25 ± 0.22 mm; zone of inhibition at 500 µg/mL (Escherichia coli [3]; [22]): 23 ± 0.2 mm; zone of inhibition at 500 µg/mL (Enterococcus faecalis [4]; [23]): 22 ± 0.25 mm; MBC (Pseudomonas aeruginosa [13]; read-out: MBC): 87.5 mg/L (≈ 197 µM); MIC (Pseudomonas aeruginosa [13]; read-out: MIC): 62.5 mg/L (≈ 141 µM); MBC (Salmonella typhi [14]): 43.8 mg/L (≈ 98.4 µM); MBC (Bacillus subtilis [15]): 40.6 mg/L (≈ 91.4 µM); MBC (Escherichia coli [16]; read-out: MBC): 18.7 mg/L (≈ 42.2 µM); MIC (Escherichia coli [16]; read-out: MIC): 15.6 mg/L (≈ 35.1 µM); MBC (Enterococcus faecalis [17]; read-out: MBC): 93.8 mg/L (≈ 211 µM); MIC (Enterococcus faecalis [17]; read-out: MIC): 62.5 mg/L (≈ 141 µM); MBC (Staphylococcus aureus [18]; read-out: MBC): 87.5 mg/L (≈ 197 µM); MIC (Staphylococcus aureus [18]; read-out: MIC): 62.5 mg/L (≈ 141 µM); zone of inhibition at 500 µg/mL (Fusarium oxysporum [5]; [24]): < 8 mm; zone of inhibition at 500 µg/mL (Salmonella typhi [6]): 21 ± 0.55 mm; zone of inhibition at 500 µg/mL (Candida albicans [7]; [25]): < 8 mm; zone of inhibition at 500 µg/mL (Staphylococcus aureus [8]; [26]): 25 ± 0.11 mm
